Data reported in USRE39087E1, “Azithromycin monohydrate isopropanol clathrate and methods for the manufacture thereof” (Apotex, Inc., priority 1998, dated 2006).
Like-named read-outs stand apart in the source and are kept apart here. Values belong to the compound of their own block, whether it stands above or below them.

What was measured:
[1] = Extended vacuum drying, water (Karl-Fischer) and isopropanol (gas chromatography) content; format: physicochemical; conditions: vacuum 1-10 mm Hg, 50° C. to 60° C., beyond 12-24 hours
Method: According to this invention, azithromycin monohydrate isopropanol clathrate contains three molecules of isopropanol for every ten molecules of azithromycin monohydrate. The process comprises the dissolution of azithromycin in isopropanol to which water is added slowly while stirring, resulting in the precipitation of crystalline azithromycin monohydrate isopropanol clathrate. The volume of solvent used is such as to be sufficient to dissolve azithromycin. The addition of the water is carried out between 0° and 30° C. and preferably between 15° C. to 25° C. The product is filtered and washed with a mixture of water-isopropanol and dried under vacuum (1-10 mm Hg) at 50° C. to 60° C. for 12-24 hours to obtain azithromycin monohydrate isopropanol clathrate in high yields. […] The water content of azithromycin monohydrate isopropanol clathrate was measured by the Karl-Fischer method and its isopropanol content was determined by gas chromatography.

[2] = Hygroscopicity of azithromycin forms; format: physicochemical; conditions: solid form
[3] = solid form, known from prior patents (EP 298 650 B1, CA 1,314,876), cited from earlier work

- hygroscopicity [2]: not hygroscopic
Compound: azithromycin monohydrate isopropanol clathrate
- effect of extension of vacuum drying on water and isopropanol content [1]: does not reduce either the water content or the isopropanol content

Compound: CC[C@H]1OC(=O)[C@H](C)[C@@H](O[C@H]2C[C@@](C)(OC)[C@@H](O)[C@H](C)O2)[C@H](C)[C@@H](O[C@@H]2O[C@H](C)C[C@H](N(C)C)[C@H]2O)[C@](C)(O)C[C@@H](C)CN(C)[C@H](C)[C@@H](O)[C@]1(C)O [Azithromycin monohydrate, azithromycin monohydrate]
- hygroscopicity ([3]; monohydrate): hygroscopic

Compound: CC[C@H]1OC(=O)[C@H](C)[C@@H](O[C@H]2C[C@@](C)(OC)[C@@H](O)[C@H](C)O2)[C@H](C)[C@@H](O[C@@H]2O[C@H](C)C[C@H](N(C)C)[C@H]2O)[C@](C)(O)C[C@@H](C)CN(C)[C@H](C)[C@@H](O)[C@]1(C)O [azithromycin dihydrate]
- hygroscopicity ([3]; dihydrate): not hygroscopic
